The text below walks through data of US8460904B2, “Method of producing reduced coenzyme Q10” (Zhejiang Zhongning Business Co., Ltd., priority 2008, dated 2013).

Each structure is given as a SMILES string.

A short description of series [1]: Stability / shelf life of the obtained reduced coenzyme Q10. In kind it is physicochemical.
Series [2] in a line: Water-solubility after phosphorylation. The series is classed as physicochemical. Conditions: usable on injection.

`COc1c(O)c(C)c(C/C=C(\C)CC/C=C(\C)CC/C=C(\C)CC/C=C(\C)CC/C=C(\C)CC/C=C(\C)CC/C=C(\C)CC/C=C(\C)CC/C=C(\C)CCC=C(C)C)c(O)c1OC` [reduced coenzyme Q10]: the shelf life result in series [1] (below 50° C.) is “over 2 years”. The “stability in phosphoric acid solution” value in series [1] (phosphoric acid solution of pH6.0-8.2) was “remains its qualities”. Moreover, the water-solubility result in series [2] is on record as “completely water soluble”.
